Laboratory results: US8765819B2, “Composition comprising benzoic acid in combination with organic acid preservatives as active ingredients and the use thereof” (priority 2009, dated 2014)

Experiments:
Candidal vaginitis = assay: Therapeutic effect of gel compositions on Candidal vaginitis (clinical cases); type: in vivo, patients; settings: cases/cases of group
Excerpt: 1. Experimental Object: observing the therapeutic effect of the compositions comprising the combination of sodium benzoate with sodium propionate or sorbic acid. Unless otherwise illustrated, the solutions in the experiments are all aqueous solutions.
• Group I: 0.125% (w/v) sodium propionate; • Group II: i.e., the composition of Example 9 comprising 0.1% (w/v) sodium benzoate+0.125% (w/v) sodium propionate; • Group III: 0.0125% (w/v) sorbic acid; • Group IV: i.e., the composition of Example 7 comprising 0.1% (w/v) sodium benzoate+0.0125% (w/v) sorbic acid; • Group V: 0.1% (w/v) sodium benzoate; • Group VI: i.e., the composition of Example 5 comprising 0.1% sodium benzoate+0.0125% sodium dehydroacetate. 3. Experimental cases: cases of Candidal vaginitis, 20 cases per group, enrolling according to following criteria: recurrent symptoms such as vulvovaginal pruritus and vulvovaginal burning pain, and increased leucorrhea, optionally with white bean curd slag-like clots, pH value of vaginal secretion <4.5, vaginal bacteria were dominated by large Gram-positive rods, and Candida spores and/or hypha were found. 4. […] 5. […] 6. Observed results: observing the changes in vulvovaginal pruritus, vulvovaginal burning pain and leucorrhea nature, the pH value of vaginal secretion, observing the Nugent scores of the vaginal flora, whether Candida grew or not. 7. […] 8.

[1] = test system: Candida strains (clinical isolates from patients suffering from Candidal vaginitis); assay: Inhibition of Candida growth in broth pH 4.5 (turbidity after 72 hours); type: cell-based; settings: for Candida growth, Strain 1: Strain 1, 37.5° C.; for Candida growth, Strain 2: Strain 2, 37.5° C.; for Candida growth, Strain 3: Strain 3, 37.5° C.; for Candida growth, Strain 4: Strain 4, 37.5° C.; for Candida growth, Strain 5: Strain 5, 37.5° C.; for Candida growth, Strain 6: Strain 6, 37.5° C.; for Candida growth, Strain 7: Strain 7, 37.5° C.; for Candida growth, Strain 8: Strain 8, 37.5° C.; for Candida growth, Strain 9: Strain 9, 37.5° C.; for Candida growth, Strain 10: Strain 10, 37.5° C.; for Candida growth, Strain 11: Strain 11, 37.5° C.
Excerpt: 1. […] Unless otherwise illustrated, the solutions in the experiments are all aqueous solutions. 2. Experimental Method: (1) Experimental Materials:
a) Experimental strains: 11 Candida strains, all of which were screened from the clinical isolates from patients suffering from Candidal vaginitis, and were capable of growing in broth comprising 0.025% (w/v) sodium benzoate.
b) Broth: 1% yeast extract powder, 9% sucrose, 0.025% Manganese sulfate (MnSO4.4H2O), 0.058% Magnesium sulphate (MgSO4.7H2O), and 0.9% lactic acid, wherein the pH value was adjusted to 4.5 and the broth was sterilized for use;
(2) Experimental Grouping:
The requirements for aseptic technique were strictly followed to prepare the following groups of sterile test tubes: • a) sodium benzoate group: a test tube containing 5 ml broth, to which 0.025% (w/v) sodium benzoate was added; • b) sodium benzoate+sodium dehydroacetate group: 6 test tubes each containing 5 ml broth, wherein 0.0025% (w/v), 0.005% (w/v), and 0.01% (w/v) sodium dehydroacetate were added to three tubes, respectively; 0.025% (w/v) sodium benzoate was added to each of the rest 3 tubes, and then 0.0025% (w/v), 0.005% (w/v), 0.01% (w/v) sodium dehydroacetate were added to them, respectively; • c) sodium benzoate+sodium propionate group: 6 test tubes each containing 5 ml broth, wherein 0.0625% (w/v), 0.125% (w/v), and 0.25% (w/v) sodium propionate were added to three tubes, respectively; 0.025% (w/v) sodium benzoate was added to each of the rest 3 tubes, and then 0.0625% (w/v), 0.125% (w/v), and 0.25% (w/v) sodium propionate were added to them, respectively; • d) sodium benzoate+potassium sorbate group: 6 test tubes each containing 5 ml broth, wherein 0.00625% (w/v), 0.0125% (w/v), and 0.025% (w/v) potassium sorbate were added to 3 tubes, respectively; 0.025% (w/v) sodium benzoate was added to each of the rest 3 tubes, and then 0.00625% (w/v), 0.0125% (w/v), and 0.025% (w/v) potassium sorbate were added to them, respectively; • e) sodium benzoate+Ethylparaben: 6 test tubes each containing 5 ml broth, wherein 0.0125% (w/v), 0.025% (w/v), and 0.05% (w/v) Ethylparaben were added to 3 tubes, respectively; 0.025% (w/v) sodium benzoate was added to each of the rest 3 tubes, and then 0.0125% (w/v), 0.025% (w/v), and 0.05% (w/v) Ethylparaben were added to them, respectively; • f) Positive control: a broth-containing test tube with Candida but without sodium benzoate, sodium dehydroacetate, sodium propionate, sorbic acid, or Ethylparaben. • g) Negative control: a broth-containing test tube without Candida, sodium benzoate, sodium dehydroacetate, sodium propionate, sorbic acid, or Ethylparaben; (3) Experimental Methods:
The Candidal suspensions were prepared under stringent aseptic manipulation techniques. The colonies of various Candidal strains were diluted with saline, respectively. The turbidity was adjusted with a turbiditor to 0.5M (about 10^8CFU/ml), and then 1 ml 0.5M bacterial solution was added to 9 ml broth and was 10 times diluted, so that each Candidal suspension comprised Candidal organisms at 10^7CFU/ml.
Under stringent aseptic manipulation techniques, 100 μl bacterial solution thus prepared was added to each of the aforesaid a˜f test tubes and the positive control tube, and no bacterial solution was added to the negative control tube g.
These tubes were incubated in a biochemical incubator at 37.5° C. for 72 hours. The turbidity of the test tubes were observed and recorded.

SMILES: O=C([O-])c1ccccc1.[Na+] [0.1% sodium benzoate, sodium benzoate]
- Candida (detection rate) (Candidal vaginitis; Day 1): 15/20
- pH 3.8~4.1 (vaginal secretion) (Candidal vaginitis; Day 1): 12/20
- pH 4.2~4.5 (vaginal secretion) (Candidal vaginitis; Day 1): 6/20
- pH <3.8 (vaginal secretion) (Candidal vaginitis; Day 1): 2/20
- symptom alleviated/eliminated (Candidal vaginitis; Day 1): 7/20
- Candida (detection rate) (Candidal vaginitis; Day 2): 13/20
- pH 3.8~4.1 (vaginal secretion) (Candidal vaginitis; Day 2): 10/20
- pH 4.2~4.5 (vaginal secretion) (Candidal vaginitis; Day 2): 9/20
- pH <3.8 (vaginal secretion) (Candidal vaginitis; Day 2): 1/20
- symptom alleviated/eliminated (Candidal vaginitis; Day 2): 9/20
- Candida (detection rate) (Candidal vaginitis; Day 3): 9/20
- pH 3.8~4.1 (vaginal secretion) (Candidal vaginitis; Day 3): 9/20
- pH 4.2~4.5 (vaginal secretion) (Candidal vaginitis; Day 3): 9/20
- pH <3.8 (vaginal secretion) (Candidal vaginitis; Day 3): 2/20
- symptom alleviated/eliminated (Candidal vaginitis; Day 3): 14/20
- Candida (detection rate) (Candidal vaginitis; Day 4): 5/20
- pH 3.8~4.1 (vaginal secretion) (Candidal vaginitis; Day 4): 10/20
- pH 4.2~4.5 (vaginal secretion) (Candidal vaginitis; Day 4): 9/20
- pH <3.8 (vaginal secretion) (Candidal vaginitis; Day 4): 1/20
- symptom alleviated/eliminated (Candidal vaginitis; Day 4): 15/20
- Candida (detection rate) (Candidal vaginitis; Day 5): 6/20
- pH 3.8~4.1 (vaginal secretion) (Candidal vaginitis; Day 5): 9/20
- pH 4.2~4.5 (vaginal secretion) (Candidal vaginitis; Day 5): 10/20
- pH <3.8 (vaginal secretion) (Candidal vaginitis; Day 5): 1/20
- symptom alleviated/eliminated (Candidal vaginitis; Day 5): 15/20
- Candida (detection rate) (Candidal vaginitis; before administration): 20/20
- pH 3.8~4.1 (vaginal secretion) (Candidal vaginitis; before administration): 10/20
- pH 4.2~4.5 (vaginal secretion) (Candidal vaginitis; before administration): 4/20
- pH <3.8 (vaginal secretion) (Candidal vaginitis; before administration): 6/20
- symptom alleviated/eliminated (Candidal vaginitis; before administration): 0/20

SMILES: C/C=C/C=C/C(=O)O [0.0125% sorbic acid, sorbic acid]
- Candida (detection rate) (Candidal vaginitis; Day 1): 15/20
- pH 3.8~4.1 (vaginal secretion) (Candidal vaginitis; Day 1): 13/20
- pH 4.2~4.5 (vaginal secretion) (Candidal vaginitis; Day 1): 6/20
- pH <3.8 (vaginal secretion) (Candidal vaginitis; Day 1): 1/20
- symptom alleviated/eliminated (Candidal vaginitis; Day 1): 6/20
- Candida (detection rate) (Candidal vaginitis; Day 2): 15/20
- pH 3.8~4.1 (vaginal secretion) (Candidal vaginitis; Day 2): 11/20
- pH 4.2~4.5 (vaginal secretion) (Candidal vaginitis; Day 2): 7/20
- pH <3.8 (vaginal secretion) (Candidal vaginitis; Day 2): 2/20
- symptom alleviated/eliminated (Candidal vaginitis; Day 2): 12/20
- Candida (detection rate) (Candidal vaginitis; Day 3): 13/20
- pH 3.8~4.1 (vaginal secretion) (Candidal vaginitis; Day 3): 10/20
- pH 4.2~4.5 (vaginal secretion) (Candidal vaginitis; Day 3): 8/20
- pH <3.8 (vaginal secretion) (Candidal vaginitis; Day 3): 2/20
- symptom alleviated/eliminated (Candidal vaginitis; Day 3): 11/20
- Candida (detection rate) (Candidal vaginitis; Day 4): 14/20
- pH 3.8~4.1 (vaginal secretion) (Candidal vaginitis; Day 4): 11/20
- pH 4.2~4.5 (vaginal secretion) (Candidal vaginitis; Day 4): 8/20
- pH <3.8 (vaginal secretion) (Candidal vaginitis; Day 4): 1/20
- symptom alleviated/eliminated (Candidal vaginitis; Day 4): 13/20
- Candida (detection rate) (Candidal vaginitis; Day 5): 13/20
- pH 3.8~4.1 (vaginal secretion) (Candidal vaginitis; Day 5): 11/20
- pH 4.2~4.5 (vaginal secretion) (Candidal vaginitis; Day 5): 7/20
- pH <3.8 (vaginal secretion) (Candidal vaginitis; Day 5): 2/20
- symptom alleviated/eliminated (Candidal vaginitis; Day 5): 12/20
- Candida (detection rate) (Candidal vaginitis; before administration): 20/20
- pH 3.8~4.1 (vaginal secretion) (Candidal vaginitis; before administration): 9/20
- pH 4.2~4.5 (vaginal secretion) (Candidal vaginitis; before administration): 6/20
- pH <3.8 (vaginal secretion) (Candidal vaginitis; before administration): 5/20
- symptom alleviated/eliminated (Candidal vaginitis; before administration): 0/20

SMILES: CCC(=O)[O-].[Na+] [0.125% sodium propionate, sodium propionate]
- Candida growth, Strain 1 [1]: +
- Candida growth, Strain 2 [1]: +
- Candida growth, Strain 3 [1]: +
- Candida growth, Strain 4 [1]: +
- Candida growth, Strain 5 [1]: −
- Candida growth, Strain 6 [1]: +
- Candida growth, Strain 7 [1]: +
- Candida growth, Strain 8 [1]: +
- Candida growth, Strain 9 [1]: −
- Candida growth, Strain 10 [1]: +
- Candida growth, Strain 11 [1]: −
- Candida (detection rate) (Candidal vaginitis; Day 1): 16/20
- pH 3.8~4.1 (vaginal secretion) (Candidal vaginitis; Day 1): 12/20
- pH 4.2~4.5 (vaginal secretion) (Candidal vaginitis; Day 1): 5/20
- pH <3.8 (vaginal secretion) (Candidal vaginitis; Day 1): 3/20
- symptom alleviated/eliminated (Candidal vaginitis; Day 1): 7/20
- Candida (detection rate) (Candidal vaginitis; Day 2): 13/20
- pH 3.8~4.1 (vaginal secretion) (Candidal vaginitis; Day 2): 11/20
- pH 4.2~4.5 (vaginal secretion) (Candidal vaginitis; Day 2): 6/20
- pH <3.8 (vaginal secretion) (Candidal vaginitis; Day 2): 3/20
- symptom alleviated/eliminated (Candidal vaginitis; Day 2): 9/20
- Candida (detection rate) (Candidal vaginitis; Day 3): 10/20
- pH 3.8~4.1 (vaginal secretion) (Candidal vaginitis; Day 3): 9/20
- pH 4.2~4.5 (vaginal secretion) (Candidal vaginitis; Day 3): 9/20
- pH <3.8 (vaginal secretion) (Candidal vaginitis; Day 3): 2/20
- symptom alleviated/eliminated (Candidal vaginitis; Day 3): 14/20
- Candida (detection rate) (Candidal vaginitis; Day 4): 12/20
- pH 3.8~4.1 (vaginal secretion) (Candidal vaginitis; Day 4): 10/20
- pH 4.2~4.5 (vaginal secretion) (Candidal vaginitis; Day 4): 9/20
- pH <3.8 (vaginal secretion) (Candidal vaginitis; Day 4): 1/20
- symptom alleviated/eliminated (Candidal vaginitis; Day 4): 13/20
- Candida (detection rate) (Candidal vaginitis; Day 5): 11/20
- pH 3.8~4.1 (vaginal secretion) (Candidal vaginitis; Day 5): 10/20
- pH 4.2~4.5 (vaginal secretion) (Candidal vaginitis; Day 5): 8/20
- pH <3.8 (vaginal secretion) (Candidal vaginitis; Day 5): 2/20
- symptom alleviated/eliminated (Candidal vaginitis; Day 5): 13/20
- Candida (detection rate) (Candidal vaginitis; before administration): 20/20
- pH 3.8~4.1 (vaginal secretion) (Candidal vaginitis; before administration): 9/20
- pH 4.2~4.5 (vaginal secretion) (Candidal vaginitis; before administration): 5/20
- pH <3.8 (vaginal secretion) (Candidal vaginitis; before administration): 6/20
- symptom alleviated/eliminated (Candidal vaginitis; before administration): 0/20

SMILES: CC(=O)c1c([O-])cc(C)oc1=O.[Na+] [0.0025% sodium dehydroacetate, sodium dehydroacetate]
- Candida growth, Strain 1 [1]: +
- Candida growth, Strain 2 [1]: +
- Candida growth, Strain 3 [1]: +
- Candida growth, Strain 4 [1]: +
- Candida growth, Strain 5 [1]: −
- Candida growth, Strain 6 [1]: +
- Candida growth, Strain 7 [1]: +
- Candida growth, Strain 8 [1]: +
- Candida growth, Strain 9 [1]: +
- Candida growth, Strain 10 [1]: +
- Candida growth, Strain 11 [1]: +
- number of the 11 Candida strains that grew ([1]; of 11 strains, listed as 0.0025% (w/v) sodium dehydroacetate): 10
